Several values for one entry are separate records, joined by “and”; a condition that tells them apart may be missing. Identical values can stand only once.
Assay: xn = mol fraction of the nth substance listed

O=C(O)CO + C[N+](C)(C)CCO.[Cl-]
100 kPa, x2 = 0.5
Settings | viscosity [mPa·s]
293.15 K | 779.4
298.15 K | 547.9
303.15 K | 394.8
308.15 K | 290.6
313.15 K | 218.6
318.15 K | 167
323.15 K | 130.1

CC(C)(C)c1ccccc1 + CC(C)c1ccccc1
303.15 K, 101.3 kPa
Settings | viscosity [mPa·s]
x2 = 0.039 | 0.9864
x2 = 0.1371 | 0.9507
x2 = 0.2661 | 0.9067
x2 = 0.4247 | 0.8551
x2 = 0.4906 | 0.8347
x2 = 0.6105 | 0.7984
x2 = 0.7457 | 0.7572
x2 = 0.8708 | 0.7224
x2 = 0.9592 | 0.6981

CCCCCOC(C)=O + O
303.15 K, 101.3 kPa
Settings | viscosity [mPa·s]
x2 = 0.0121 | 0.796
x2 = 0.0385 | 0.801
x2 = 0.0645 | 0.805
x2 = 0.0655 | 0.805
x2 = 0.0854 | 0.809

CCCC=O + CCCCO
viscosity [mPa·s], 100 kPa
Settings | 294.53 K | 294.63 K | 319.13 K | 320.13 K
x2 = 0.59 | – | 5.78 | 2.552 | –
x2 = 0.9 | 5.49 | – | – | 2.98

C1CCC2=[NH+]CCCN2CC1.c1nc[n-]n1 + CC(C)O
303.15 K, 100 kPa
Settings | viscosity [mPa·s]
x1 = 0.1001 | 7.85
x1 = 0.2 | 11.12
x1 = 0.2999 | 23.38
x1 = 0.4003 | 47.5
x1 = 0.4989 | 98.71
x1 = 0.6002 | 185.2
x1 = 0.7008 | 298.3
x1 = 0.7993 | 439.8
x1 = 0.9002 | 746.1

CCCCCCCCCCCCc1ccccc1 + CCCCCCCCCCCCCCCC
viscosity [mPa·s], 102 kPa
Settings | x1 = 0.09264 | x1 = 0.1868 | x1 = 0.2826 | x1 = 0.3803 | x1 = 0.4789 | x1 = 0.5793 | x1 = 0.6819 | x1 = 0.786 | x1 = 0.892
293.15 K | 3.55 | 3.67 | 3.82 | 3.99 | 4.16 | 4.36 | 4.59 | 4.85 | 5.14
303.15 K | 2.81 | 2.9 | 3.01 | 3.13 | 3.26 | 3.41 | 3.58 | 3.76 | 3.97
313.15 K | 2.27 | 2.35 | 2.43 | 2.52 | 2.63 | 2.74 | 2.86 | 3 | 3.16
323.15 K | 1.88 | 1.94 | 2.01 | 2.08 | 2.16 | 2.25 | 2.34 | 2.45 | 2.57

CC(C)CO + CCC(C)O
Settings | viscosity [mPa·s]
313.15 K, 101 kPa, x2 = 0.3008 | 2.005

CCCCCOC(C)=O + CO
303.15 K, 101.3 kPa
Settings | viscosity [mPa·s]
x1 = 0.0524 | 0.537
x1 = 0.1018 | 0.561
x1 = 0.1038 | 0.533
x1 = 0.1608 | 0.547
x1 = 0.1934 | 0.608
x1 = 0.3024 | 0.652
x1 = 0.4255 | 0.695
x1 = 0.5168 | 0.719
x1 = 0.5951 | 0.733
x1 = 0.6976 | 0.753
x1 = 0.791 | 0.775
x1 = 0.8949 | 0.794

CCCCCOC(C)=O + ClC(Cl)Cl
303.15 K, 101.3 kPa
Settings | viscosity [mPa·s]
x1 = 0.0995 | 0.5918
x1 = 0.2017 | 0.6667
x1 = 0.2998 | 0.725
x1 = 0.3984 | 0.7678
x1 = 0.5049 | 0.7991
x1 = 0.5912 | 0.8048
x1 = 0.7005 | 0.8002
x1 = 0.8153 | 0.7844
x1 = 0.8911 | 0.7722

C=CC(=O)OC + C1CCOC1
viscosity [mPa·s], 101 kPa
Settings | 293.15 K | 298.15 K | 303.15 K | 308.15 K | 313.15 K | 318.15 K
x2 = 0.0773 | 0.4982 | 0.4567 | 0.4181 | 0.3852 | 0.3553 | 0.3283
x2 = 0.1554 | 0.4934 | 0.454 | 0.4172 | 0.3854 | 0.3561 | 0.3294
x2 = 0.2064 | 0.4907 | 0.4527 | 0.4169 | 0.3858 | 0.3569 | 0.3304
x2 = 0.2545 | 0.4885 | 0.4517 | 0.417 | 0.3865 | 0.3579 | 0.3315
x2 = 0.3215 | 0.486 | 0.4508 | 0.4174 | 0.3878 | 0.3596 | 0.3333
x2 = 0.3989 | 0.4838 | 0.4505 | 0.4186 | 0.3898 | 0.362 | 0.3358
x2 = 0.4655 | 0.4826 | 0.4507 | 0.4201 | 0.392 | 0.3644 | 0.3382
x2 = 0.53 | 0.4819 | 0.4515 | 0.422 | 0.3945 | 0.3671 | 0.3409
x2 = 0.6023 | 0.4819 | 0.453 | 0.4246 | 0.3977 | 0.3706 | 0.3442
x2 = 0.6834 | 0.4826 | 0.4553 | 0.4282 | 0.4018 | 0.3748 | 0.3483
x2 = 0.7632 | 0.4841 | 0.4583 | 0.4323 | 0.4064 | 0.3795 | 0.3528
x2 = 0.8468 | 0.4865 | 0.4622 | 0.4372 | 0.4118 | 0.3849 | 0.3579
x2 = 0.9316 | 0.4899 | 0.467 | 0.4429 | 0.4177 | 0.3909 | 0.3634

CCn1cc[n+](C)c1.O=S(=O)([O-])C(F)(F)F + CC1COC(=O)O1
101 kPa
Settings | viscosity [mPa·s]
298.15 K, x1 = 0.6987 | 21.65
303.15 K, x1 = 0.0999 | 3.915
303.15 K, x1 = 0.1999 | 5.315
303.15 K, x1 = 0.6987 | 18.45
308.15 K, x1 = 0.1999 | 4.575
313.15 K, x1 = 0.3998 | 6.675
318.15 K, x1 = 0.8998 | 17.65
323.15 K, x1 = 0.0999 | 2.425
323.15 K, x1 = 0.3998 | 5.115

Cc1ccccc1O + C[N+](C)(C)CCO.[Cl-]
298.15 K, 101.33 kPa
Settings | viscosity
x1 = 0.7 | 137.1 mPa·s
x1 = 0.8 | 73.25 mPa·s and 56.18 mPa·s and 47.22 mPa·s
x1 = 0.9 | 38.19 mPa·s

ClCC(Cl)Cl + O=S1(=O)CCCC1
viscosity [mPa·s], 100 kPa
Settings | x2 = 0.0188 | x2 = 0.1215 | x2 = 0.2323 | x2 = 0.3466 | x2 = 0.4454 | x2 = 0.5548 | x2 = 0.6864 | x2 = 0.8249 | x2 = 0.9723
303.15 K | 1.202 | 2.163 | 3.186 | 4.237 | 5.137 | 6.131 | 7.307 | 8.528 | 9.798
308.15 K | 1.108 | 1.937 | 2.834 | 3.752 | 4.539 | 5.402 | 6.428 | 7.489 | 8.588
313.15 K | 1.024 | 1.754 | 2.548 | 3.369 | 4.069 | 4.831 | 5.738 | 6.671 | 7.649

COC(N)=O + CCOC(N)=O
101.33 kPa, x2 = 0.5
Settings | viscosity [mPa·s]
298.15 K | 7.716
313.15 K | 4.41

From the CheMixHub viscosity set
